{"source": "patent US11685746B2", "about": "“Heteroaryl compounds for treating Huntington's disease” (PTC THERAPEUTICS, INC., priority 2018, dated 2023)", "data": [{"tested_on": "Endogenous Huntingtin Protein", "assay": "Endogenous Huntingtin Protein Assay (MSD plates, MW1 or MAB2166 capture antibody)", "type": "cell-based", "details": "Table 1", "in_short": "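Sandwich MSD immunoassay: plates were coated overnight at 4° C with MW1 (expanded polyQ) or MAB2166 capture antibody at 1 μg/mL, then blocked with 5% BSA. Samples were bound overnight at 4° C, followed by rabbit mAb #5656S and SULFO-TAG anti-rabbit detection, each at 0.25 μg/mL for 1 h at room temperature. Signal was read by electrochemiluminescence.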", "units": {"IC50": "nM"}, "values": [{"smiles": "C[C@@H]1C[C@@H](Oc2nc3sc(-c4ncc(-c5cn[nH]c5)c5cc[nH]c45)nc3s2)CCN1", "note": "[Compound 76, 7-(5-{[(2R,4S)-2-methylpiperidin-4-yl]oxy}[1,3]thiazolo[5,4-d][1,3]thiazol-2-yl)-4-(1H-pyrazol-4-yl)-1H-pyrrolo[2,3-c]pyridine]", "IC50": "≤ 100"}, {"smiles": "CC1(C)CC(Oc2nc3sc(-c4ncc(-c5cn[nH]c5)c5cc[nH]c45)nc3s2)CCN1", "note": "(stereo not shown) [Compound 77, 7-{5-[(2,2-dimethylpiperidin-4-yl)oxy][1,3]thiazolo[5,4-d][1,3]thiazol-2-yl}-4-(1H-pyrazol-4-yl)-1H-pyrrolo[2,3-c]pyridine]", "IC50": "≤ 100"}, {"smiles": "CCn1cc(-c2cnc(-c3nc4sc(N(C)[C@H]5CCN[C@H](C)C5)nc4s3)c3[nH]ccc23)cn1", "note": "[Compound 90, 5-[4-(1-ethyl-1H-pyrazol-4-yl)-1H-pyrrolo[2,3-c]pyridin-7-yl]-N-methyl-N-[(2R,4S)-2-methylpiperidin-4-yl][1,3]thiazolo[5,4-d][1,3]thiazol-2-amine]", "IC50": "≤ 100"}, {"smiles": "C[C@H]1C[C@@H](Oc2nc3sc(-c4ncc(-c5cn[nH]c5)c5cc[nH]c45)nc3s2)CCN1", "note": "[Compound 120, 7-(5-{[(2S,4S)-2-methylpiperidin-4-yl]oxy}[1,3]thiazolo[5,4-d][1,3]thiazol-2-yl)-4-(1H-pyrazol-4-yl)-1H-pyrrolo[2,3-c]pyridine]", "IC50": "≤ 100"}, {"smiles": "CN(c1nc2sc(-c3ccc(-c4cnn(C)c4F)cc3O)nc2s1)C1CC(C)(C)NC(C)(C)C1", "note": "[Compound 48, 5-(5-fluoro-1-methyl-1H-pyrazol-4-yl)-2-{5-[methyl(2,2,6,6-tetramethylpiperidin-4-yl)amino][1,3]thiazolo[5,4-d][1,3]thiazol-2-yl}phenol]", "IC50": "100 to 500"}, {"smiles": "CN(c1nc2sc(-n3ccc(-n4cc(F)cn4)cc3=O)nc2s1)[C@@H]1C[C@H]2CC[C@@H](C1)N2", "note": "[Compound 149, 1-(5-{[(1R,3s,5S)-8-azabicyclo[3.2.1]octan-3-yl](methyl)amino}[1,3]thiazolo[5,4-d][1,3]thiazol-2-yl)-4-(4-fluoro-1H-pyrazol-1-yl)pyridin-2(1H)-one]", "IC50": "≤ 100"}, {"smiles": "CC1CC(N(C)c2nc3sc(-c4ccc(-c5cn[nH]c5)nc4)nc3s2)CCN1C", "note": "(stereo not shown) [Compound 127, N-(1,2-dimethylpiperidin-4-yl)-N-methyl-5-[6-(1H-pyrazol-4-yl)pyridin-3-yl][1,3]thiazolo[5,4-d][1,3]thiazol-2-amine]", "IC50": "1000 to 3000"}, {"smiles": "Oc1cc(-c2cn[nH]c2)ccc1-c1nc2sc(N3CCNCC3)nc2s1", "note": "[Compound 6, 2-[5-(piperazin-1-yl)[1,3]thiazolo[5,4-d][1,3]thiazol-2-yl]-5-(1H-pyrazol-4-yl)phenol]", "IC50": "1000 to 3000"}, {"smiles": "CN(c1nc2sc(-c3cc(F)c(-c4cn[nH]c4)c(F)c3)nc2s1)C1CCNCC1", "note": "[Compound 21, 5-[3,5-difluoro-4-(1H-pyrazol-4-yl)phenyl]-N-methyl-N-(piperidin-4-yl)[1,3]thiazolo[5,4-d][1,3]thiazol-2-amine]", "IC50": "1000 to 3000"}, {"smiles": "CC1CC(N(C)c2nc3sc(-n4cnc(-c5cn[nH]c5)cc4=O)nc3s2)CCN1C", "note": "(stereo not shown) [Compound 131, 3-{5-[(1,2-dimethylpiperidin-4-yl)(methyl)amino][1,3]thiazolo[5,4-d][1,3]thiazol-2-yl}-6-(1H-pyrazol-4-yl)pyrimidin-4(3H)-one]", "IC50": "100 to 500"}, {"smiles": "Cc1cn2cc(-c3nc4sc(C5CCNCC5)nc4s3)cc(C#N)c2n1", "note": "[Compound 10, 2-methyl-6-[5-(piperidin-4-yl)[1,3]thiazolo[5,4-d][1,3]thiazol-2-yl]imidazo[1,2-a]pyridine-8-carbonitrile]", "IC50": "100 to 500"}, {"smiles": "Cc1cn(-c2cnc(-c3nc4sc(N(C)C5CCNCC5)nc4s3)c(O)c2)cn1", "note": "[Compound 221, 5-(4-methyl-1H-imidazol-1-yl)-2-{5-[methyl(piperidin-4-yl)amino][1,3]thiazolo[5,4-d][1,3]thiazol-2-yl}pyridin-3-ol]", "IC50": "≤ 100"}, {"smiles": "CN(c1nc2sc(-c3cnc(-c4cnn(C)c4)cn3)nc2s1)[C@H]1C[C@]2(C)CC[C@](C)(C1)N2", "note": "[Compound 89, N-[(1R,3s,5S)-1,5-dimethyl-8-azabicyclo[3.2.1]octan-3-yl]-N-methyl-5-[5-(1-methyl-1H-pyrazol-4-yl)pyrazin-2-yl][1,3]thiazolo[5,4-d][1,3]thiazol-2-amine]", "IC50": "≤ 100"}, {"smiles": "CN(c1nc2sc(-c3cnc(Br)n4ccnc34)nc2s1)C1CCNCC1", "note": "[Compound 116, 5-(5-bromoimidazo[1,2-c]pyrimidin-8-yl)-N-methyl-N-(piperidin-4-yl)[1,3]thiazolo[5,4-d][1,3]thiazol-2-amine]", "IC50": "500 to 1000"}, {"smiles": "CCN1CCC(N(C)c2nc3sc(-c4ncc(-c5cn[nH]c5)cc4O)nc3s2)CC1", "note": "[Compound 207, 2-{5-[(1-ethylpiperidin-4-yl)(methyl)amino][1,3]thiazolo[5,4-d][1,3]thiazol-2-yl}-5-(1H-pyrazol-4-yl)pyridin-3-ol]", "IC50": "≤ 100"}, {"smiles": "CN(c1nc2sc(-n3cnc(-c4cn[nH]c4)c3)nc2s1)[C@@H]1C[C@H]2CC[C@@H](C1)N2", "note": "[Compound 170, N-[(1R,3s,5S)-8-azabicyclo[3.2.1]octan-3-yl]-N-methyl-5-[4-(1H-pyrazol-4-yl)-1H-imidazol-1-yl][1,3]thiazolo[5,4-d][1,3]thiazol-2-amine]", "IC50": "100 to 500"}, {"smiles": "CN(c1nc2sc(-c3ncc(-c4cn[nH]c4)cn3)nc2s1)[C@@H]1C[C@H]2CC[C@@H](C1)N2", "note": "[Compound 194, N-[(1R,3s,5S)-8-azabicyclo[3.2.1]octan-3-yl]-N-methyl-5-[5-(1H-pyrazol-4-yl)pyrimidin-2-yl][1,3]thiazolo[5,4-d][1,3]thiazol-2-amine]", "IC50": "≤ 100"}, {"smiles": "CN1CCC(N(C)c2nc3sc(-c4ccc(-c5cn[nH]c5)cc4O)nc3s2)CC1", "note": "[Compound 24, 2-{5-[methyl(1-methylpiperidin-4-yl)amino][1,3]thiazolo[5,4-d][1,3]thiazol-2-yl}-5-(1H-pyrazol-4-yl)phenol]", "IC50": "≤ 100"}, {"smiles": "Cc1[nH]ncc1-c1cnc(-c2nc3sc(N(C)[C@H]4C[C@]5(C)CC[C@](C)(C4)N5)nc3s2)cn1", "note": "[Compound 86, N-[(1R,3s,5S)-1,5-dimethyl-8-azabicyclo[3.2.1]octan-3-yl]-N-methyl-5-[5-(5-methyl-1H-pyrazol-4-yl)pyrazin-2-yl][1,3]thiazolo[5,4-d][1,3]thiazol-2-amine]", "IC50": "≤ 100"}, {"smiles": "[2H]C([2H])([2H])n1cc(-c2ccc(-c3nc4sc(N(C)C5CCNCC5)nc4s3)c(O)c2)cn1", "note": "[Compound 39, 2-{5-[methyl(piperidin-4-yl)amino][1,3]thiazolo[5,4-d][1,3]thiazol-2-yl}-5-[1-(^2H3)methyl-1H-pyrazol-4-yl]phenol]", "IC50": "≤ 100"}, {"smiles": "CN1CCC2(CC1)CCN2c1nc2sc(-c3ncc(-c4cn[nH]c4)cc3O)nc2s1", "note": "[Compound 179, 2-[5-(7-methyl-1,7-diazaspiro[3.5]nonan-1-yl)[1,3]thiazolo[5,4-d][1,3]thiazol-2-yl]-5-(1H-pyrazol-4-yl)pyridin-3-ol]", "IC50": "≤ 100"}, {"smiles": "CN(c1nc2sc(-n3cnc(-c4cn[nH]c4)cc3=O)nc2s1)C1CC(C)(C)NC(C)(C)C1", "note": "[Compound 140, 3-{5-[methyl(2,2,6,6-tetramethylpiperidin-4-yl)amino][1,3]thiazolo[5,4-d][1,3]thiazol-2-yl}-6-(1H-pyrazol-4-yl)pyrimidin-4(3H)-one]", "IC50": "≤ 100"}, {"smiles": "CC1CC(N(C)c2nc3sc(-c4cnc(-c5cn[nH]c5)cn4)nc3s2)CCN1C", "note": "(stereo not shown) [Compound 132, N-(1,2-dimethylpiperidin-4-yl)-N-methyl-5-[5-(1H-pyrazol-4-yl)pyrazin-2-yl][1,3]thiazolo[5,4-d][1,3]thiazol-2-amine]", "IC50": "100 to 500"}, {"smiles": "Cn1cc2cc(-c3cn4nc(C5=CC6CCC(C5)N6)sc4n3)cc(C#N)c2n1", "note": "(stereo not shown) [Compound 33, 5-[2-(8-azabicyclo[3.2.1]oct-2-en-3-yl)imidazo[2,1-b][1,3,4]thiadiazol-6-yl]-2-methyl-2H-indazole-7-carbonitrile]", "IC50": "1000 to 3000"}, {"smiles": "C[C@@H]1C[C@@H](Oc2nc3sc(-c4ccc(-c5cn[nH]c5)c5nc[nH]c45)nc3s2)CCN1", "note": "[Compound 68, 7-(5-{[(2R,4S)-2-methylpiperidin-4-yl]oxy}[1,3]thiazolo[5,4-d][1,3]thiazol-2-yl)-4-(1H-pyrazol-4-yl)-1H-benzimidazole]", "IC50": "≤ 100"}, {"smiles": "CC(C)N1CCC(N(C)c2nc3sc(-c4ncc(-c5cn[nH]c5)cc4O)nc3s2)CC1", "note": "[Compound 205, 2-(5-{methyl[1-(propan-2-yl)piperidin-4-yl]amino}[1,3]thiazolo[5,4-d][1,3]thiazol-2-yl)-5-(1H-pyrazol-4-yl)pyridin-3-ol]", "IC50": "≤ 100"}, {"smiles": "CC1CC(N(C)c2nc3sc(-c4ncc(-c5cn[nH]c5)cn4)nc3s2)CCN1C", "note": "(stereo not shown) [Compound 129, N-(1,2-dimethylpiperidin-4-yl)-N-methyl-5-[5-(1H-pyrazol-4-yl)pyrimidin-2-yl][1,3]thiazolo[5,4-d][1,3]thiazol-2-amine]", "IC50": "100 to 500"}, {"smiles": "Cc1cn2cc(-c3nn4cc(C5CCNCC5)nc4s3)cc(F)c2n1", "note": "[Compound 30, 8-fluoro-2-methyl-6-[6-(piperidin-4-yl)imidazo[2,1-b][1,3,4]thiadiazol-2-yl]imidazo[1,2-a]pyridine]", "IC50": "100 to 500"}, {"smiles": "CN(c1nc2sc(-c3cnc(-n4cccn4)cn3)nc2s1)C1CC(C)(C)NC(C)(C)C1", "note": "[Compound 105, N-methyl-5-[5-(1H-pyrazol-1-yl)pyrazin-2-yl]-N-(2,2,6,6-tetramethylpiperidin-4-yl)[1,3]thiazolo[5,4-d][1,3]thiazol-2-amine]", "IC50": "500 to 1000"}, {"smiles": "CN(c1nc2sc(-c3cnc(-c4cn[nH]c4)cn3)nc2s1)[C@H]1C[C@]2(C)CC[C@](C)(C1)N2C", "note": "[Compound 114, N-methyl-5-[5-(1H-pyrazol-4-yl)pyrazin-2-yl]-N-[(1R,3s,5S)-1,5,8-trimethyl-8-azabicyclo[3.2.1]octan-3-yl][1,3]thiazolo[5,4-d][1,3]thiazol-2-amine]", "IC50": "≤ 100"}, {"smiles": "Cn1cc2cc(-c3nc4sc(C5CCNCC5)nc4s3)cc(C#N)c2n1", "note": "[Compound 15, 2-methyl-5-[5-(piperidin-4-yl)[1,3]thiazolo[5,4-d][1,3]thiazol-2-yl]-2H-indazole-7-carbonitrile]", "IC50": "≤ 100"}]}]}
